Measured values reported in patent US11371061B2, “Compositions and methods for improving viral vector efficiency” (GENETHON, priority 2015, dated 2022).
Where no end group is shown, it is not given here.

Tests used:
[1] = test system: VSV-G-LV particles
[2] = test system: HCT116 cells; format: cell-based, human

KKALLHAALAHLLALAHHLLALLKKA-NH2 [Vectofusin-1]
aggregation of viral particles (pull-down) [1]: aggregation of viral particles, like it is the case for Vectofusin-1

KLALKLALKALKAALKA G TNVFNATFEIWHDGEFGT (KLALKLALKALKAALKAGTNVFNATFEIWHDGEFGT; Synthetic MAP-B1) [MAP-Beclin1]
capacity to promote lentiviral transduction [2]: as efficient as TB1

TNVFNATFEIWHDGEFGT (Synthetic modified beclin-1 267-284) [the 267-284 modified beclin1 domain, reference compound]
capacity to promote lentiviral transduction [2]: neither Tat nor Bec peptides are capable to promote lentiviral transduction

YGRKKRRQRRR (Synthetic Tat (47-57)) [the Tat transduction domain, reference compound]
capacity to promote lentiviral transduction [2]: neither Tat nor Bec peptides are capable to promote lentiviral transduction

YGRKKRRQRRR GG FEIWHDGEFGTINNFRLGRLPSVPV (YGRKKRRQRRRGGFEIWHDGEFGTINNFRLGRLPSVPV; Synthetic TB1 274-298) [Tat-Bec(274-298)]
capacity to promote lentiviral transduction at 2.5 μM [2]: most of the derivatives are a lot more efficient than TB1, except for Tat-Bec(274-298)

YGRKKRRQRRR GG INCFTATFEIWVEGPLGV (YGRKKRRQRRRGGINCFTATFEIWVEGPLGV; Synthetic TAT+ GG + Beclin2) [Tat-Bec2WT]
effect on lentiviral transduction at 100 nM [2]: three-folds | lentiviral transduction at 100 nM [2]: 30% | optimal dose to promote lentiviral transduction [2]: 500 nM

YGRKKRRQRRR GG TNVFNATFEIWHDGEFGTINNFRLGRLPSV (YGRKKRRQRRRGGTNVFNATFEIWHDGEFGTINNFRLGRLPSV; Synthetic TB1 267-296) [Tat-Bec(267-296)]
dose capable to promote optimal lentiviral transduction [2]: ≥ 1 µM

YGRKKRRQRRR GG TNVFNATFHIWHSGQFGT (YGRKKRRQRRRGGTNVFNATFHIWHSGQFGT; Synthetic TB WT) [Tat-BecWT]
capacity to promote lentiviral transduction at 2.5 μM [2]: capable to promote lentiviral transduction as efficiently as TB1 | capacity to promote lentiviral transduction at 5 μM [2]: no longer active | effect on lentiviral transduction at 100 nM [2]: no effect | optimal dose to promote lentiviral transduction [2]: 1000 nM

YGRKKRRQRRR GG TNVFNATFHIWHSGQFGTINNFRLGRLPSV (YGRKKRRQRRRGGTNVFNATFHIWHSGQFGTINNFRLGRLPSV; Synthetic TB WT 267-296) [Tat-Bec(267-296)WT]
capacity to promote lentiviral transduction at 2.5 μM [2]: promoting the lentiviral transduction but less efficiently than the Tat-Bec(267-296) peptide

YGRKKRRQRRR GG VENQMRYAQTQLDKLKKTNVFNATFEIWHDGEF (YGRKKRRQRRRGGVENQMRYAQTQLDKLKKTNVFNATFEIWHDGEF; Synthetic TB1 250-282) [Tat-Bec(250-282)]
capacity to promote lentiviral transduction at 2.5 μM [2]: most performant peptide at a low dose

YGRKKRRQRRR TNVFNATFEIWHDGEFGTINNFRLGRLPSV (YGRKKRRQRRRTNVFNATFEIWHDGEFGTINNFRLGRLPSV; Synthetic modified Tat-Beclin-1 + beclin-1 285-296) [Tat-Bec(267-296)dGG]
increase of the level of viral transduction [2]: nearly five folds
